From ChEMBL document CHEMBL1137849, “Rational design of 6-methylsulfonylindoles as selective cyclooxygenase-2 inhibitors” (Bioorg Med Chem Lett, 2004)

Assays:
[1] = In vitro inhibitory concentration against Prostaglandin G/H synthase 1 enzyme activity
[2] = target: T1, Prostaglandin G/H synthase 2 (Homo sapiens, UniProt P35354); experiment: In vitro inhibitory concentration against Prostaglandin G/H synthase 2 enzyme activity
T1 sequence (P35354 whole entry): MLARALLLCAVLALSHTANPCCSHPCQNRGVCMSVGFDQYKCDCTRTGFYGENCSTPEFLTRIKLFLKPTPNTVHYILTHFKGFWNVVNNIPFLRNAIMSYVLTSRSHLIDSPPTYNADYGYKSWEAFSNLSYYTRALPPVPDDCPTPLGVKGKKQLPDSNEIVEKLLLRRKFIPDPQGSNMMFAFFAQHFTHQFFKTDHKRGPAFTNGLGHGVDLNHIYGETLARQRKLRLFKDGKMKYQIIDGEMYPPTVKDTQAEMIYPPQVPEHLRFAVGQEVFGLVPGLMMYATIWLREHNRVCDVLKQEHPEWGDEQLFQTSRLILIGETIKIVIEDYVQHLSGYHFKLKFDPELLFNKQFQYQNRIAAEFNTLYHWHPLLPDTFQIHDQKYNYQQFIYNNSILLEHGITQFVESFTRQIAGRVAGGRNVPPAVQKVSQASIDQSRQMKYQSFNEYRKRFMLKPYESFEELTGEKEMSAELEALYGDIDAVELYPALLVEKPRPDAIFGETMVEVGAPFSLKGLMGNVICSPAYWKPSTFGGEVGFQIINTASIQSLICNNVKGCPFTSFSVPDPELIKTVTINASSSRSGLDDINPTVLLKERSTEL

[3] = target: T2, Prostaglandin G/H synthase 1 (Homo sapiens, UniProt P23219); experiment: Inhibitory concentration against human whole blood Prostaglandin G/H synthase 1 enzyme activity
[4] = target: T1, Prostaglandin G/H synthase 2; experiment: Inhibitory concentration against human whole blood Prostaglandin G/H synthase 2 enzyme activity was determined
[5] = Area under curve plasma concentration of compound in rat when administered perorally at 10 mg/kg dose; assay type: ADME, organism-based; parameters: dose 10 mg/kg, route oral; conditions: in vivo, po
[6] = Plasma half life of compound was determined in rat; assay type: ADME
[7] = In vitro inhibitory concentration against Prostaglandin G/H synthase 1
[8] = target: T2, Prostaglandin G/H synthase 1; experiment: Inhibitory concentration against human whole blood Prostaglandin G/H synthase 1

T2 sequence (P23219 whole entry): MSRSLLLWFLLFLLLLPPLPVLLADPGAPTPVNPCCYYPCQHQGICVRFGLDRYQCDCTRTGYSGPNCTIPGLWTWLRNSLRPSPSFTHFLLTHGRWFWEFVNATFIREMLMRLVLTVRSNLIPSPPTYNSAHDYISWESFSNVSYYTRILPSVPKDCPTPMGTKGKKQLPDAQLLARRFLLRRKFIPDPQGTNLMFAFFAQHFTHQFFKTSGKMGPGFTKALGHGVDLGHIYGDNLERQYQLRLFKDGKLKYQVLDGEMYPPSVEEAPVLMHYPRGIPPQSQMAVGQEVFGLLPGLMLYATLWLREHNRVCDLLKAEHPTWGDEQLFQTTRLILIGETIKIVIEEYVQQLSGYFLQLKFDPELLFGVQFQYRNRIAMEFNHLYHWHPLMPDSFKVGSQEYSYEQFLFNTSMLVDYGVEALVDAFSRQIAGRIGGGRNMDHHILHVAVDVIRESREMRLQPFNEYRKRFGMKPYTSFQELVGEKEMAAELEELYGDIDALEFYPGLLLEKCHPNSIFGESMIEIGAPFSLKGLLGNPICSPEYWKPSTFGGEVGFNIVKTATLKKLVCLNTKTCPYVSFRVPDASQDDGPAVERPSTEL

IC50 [1]	IC50 [2]	IC50 [3]	IC50 [4]	AUC [5]	half-life [6]	SMILES	IC50 [7]	IC50 [8]
> 40 µM	0.26 µM	71.1 µM	5.6 µM	–	–	Cc1[nH]c2cc(S(C)(=O)=O)ccc2c1Cc1ccc(Cl)cc1	–	–
39.5 µM	0.11 µM	33 µM	4.1 µM	–	–	Cc1[nH]c2cc(S(C)(=O)=O)ccc2c1Oc1ccc(F)cc1F	–	–
–	0.42 µM	> 100 µM	5.9 µM	–	–	CS(=O)(=O)c1ccc2c(Sc3ccc(F)cc3)c(CO)[nH]c2c1	–	–
> 40 µM	0.08 µM	63.9 µM	11.3 µM	–	–	Cc1[nH]c2cc(S(C)(=O)=O)ccc2c1Cc1ccc(F)cc1	–	–
9 µM	0.47 µM	18 µM	4.8 µM	–	–	COc1ccc(Sc2c(C)[nH]c3cc(S(C)(=O)=O)ccc23)cc1	–	–
–	> 40 µM	–	–	–	–	Cc1[nH]c2cc(S(C)(=O)=O)ccc2c1[S+]([O-])c1ccc(F)cc1 (centres undefined)	–	–
–	0.33 µM	8.1 µM	1.09 µM	–	–	COc1ccc(Sc2c(C#N)[nH]c3cc(S(C)(=O)=O)ccc23)c(Cl)c1	–	–
–	> 40 µM	–	–	–	–	CS(=O)(=O)c1ccc2c(Sc3ccc(F)cc3)c(C(=O)O)[nH]c2c1	–	–
–	2.24 µM	> 40 µM	> 40 µM	–	–	CS(=O)(=O)c1ccc2c(Sc3ccc(F)cc3F)c(C(N)=O)[nH]c2c1	–	–
–	1.78 µM	30 µM	5.2 µM	–	–	Cc1[nH]c2cc(S(C)(=O)=O)ccc2c1Sc1ccccn1	–	–
–	0.94 µM	> 60 µM	1.27 µM	316 µM·h	6.3 h	CS(=O)(=O)c1ccc2c(Sc3ccc(F)cc3F)c(C#N)[nH]c2c1	–	–
> 40 µM	–	3.5 µM	2.6 µM	–	–	COc1ccc(C(=O)c2c(C)[nH]c3cc(S(C)(=O)=O)ccc23)cc1	–	–
–	> 40 µM	–	–	–	–	Cc1[nH]c2cc(S(C)(=O)=O)ccc2c1S(=O)(=O)c1ccc(F)cc1	–	–
> 30 µM	0.2 µM	6 µM	1.6 µM	–	–	COc1ccc(Oc2c(C)[nH]c3cccc(S(C)(=O)=O)c23)cc1	–	–
> 40 µM	0.26 µM	98 µM	8.4 µM	72 µM·h	4.1 h	Cc1[nH]c2cc(S(C)(=O)=O)ccc2c1Cc1ccc(F)cc1F	–	–
–	> 40 µM	–	–	–	–	CC(=O)OCc1[nH]c2cc(S(C)(=O)=O)ccc2c1Sc1ccccc1Cl	–	–
–	> 40 µM	–	–	–	–	CS(=O)(=O)Cc1[nH]c2cc(S(C)(=O)=O)ccc2c1Sc1ccccc1Cl	–	–
–	> 40 µM	–	–	–	–	CNC(=O)c1[nH]c2cc(S(C)(=O)=O)ccc2c1Sc1ccc(F)cc1F	–	–
–	0.38 µM	17.2 µM	0.38 µM	–	–	COC(=O)c1[nH]c2cc(S(C)(=O)=O)ccc2c1Sc1ccc(F)cc1F	–	–
–	0.8 µM	9.3 µM	1.1 µM	–	–	COC(=O)c1[nH]c2cc(S(C)(=O)=O)ccc2c1Sc1ccc(F)cc1	–	–
25.8 µM	0.11 µM	33 µM	4.1 µM	–	–	Cc1[nH]c2cc(S(C)(=O)=O)ccc2c1Oc1ccc(Cl)cc1Cl	–	–
–	0.13 µM	> 67 µM	0.57 µM	56 µM·h	–	CS(=O)(=O)c1ccc2c(Sc3ccccc3Cl)c(C#N)[nH]c2c1	–	–
–	–	> 125 µM	2.3 µM	–	–	CS(=O)(=O)c1ccc2c(Sc3ccc(F)cc3)c(C#N)[nH]c2c1	–	–
–	–	18.2 µM	0.77 µM	118 µM·h	–	Cc1[nH]c2cc(S(C)(=O)=O)ccc2c1Sc1ccc(F)cc1F	–	–
> 45 µM	0.27 µM	7.3 µM	5.1 µM	–	–	COc1ccc(Cc2c(C)[nH]c3cc(S(C)(=O)=O)ccc23)cc1	–	–
30 µM	0.3 µM	12 µM	3.8 µM	–	–	Cc1[nH]c2cc(S(C)(=O)=O)ccc2c1Oc1ccc(Cl)cc1	–	–
> 30 µM	0.2 µM	6 µM	1.6 µM	–	–	COc1ccc(Oc2c(C)[nH]c3cc(S(C)(=O)=O)ccc23)cc1	–	–
–	1.21 µM	> 40 µM	> 40 µM	–	–	CS(=O)(=O)c1ccc2c(Sc3ccc(F)cc3)c(C(N)=O)[nH]c2c1	–	–

SMILES	IC50 [1]	IC50 [2]	IC50 [3]	IC50 [4]	AUC [5]	half-life [6]	IC50 [7]	IC50 [8]
Cc1[nH]c2cc(S(C)(=O)=O)ccc2c1C(=O)c1ccc(F)cc1	100 µM	0.66 µM	2.44 µM	1.72 µM	–	–	–	–
Cc1[nH]c2cc(S(C)(=O)=O)ccc2c1Cc1ccccc1Cl	–	0.07 µM	118 µM	5.5 µM	–	–	> 40 µM	–
Cc1[nH]c2cc(S(C)(=O)=O)ccc2c1Sc1ccc(F)cc1	> 40 µM	0.02 µM	55.7 µM	2.2 µM	–	–	–	–
Cc1[nH]c2cc(S(C)(=O)=O)ccc2c1Oc1ccc(F)cc1	> 40 µM	0.03 µM	–	2 µM	35 µM·h	6.2 h	–	37 µM
